# Legend:
# Format in all cases: in vivo
# [1] = tested on: rice (Oryra sativa); test: Test B flooded paddy test; conditions: Oryza sativa, 250 g ai/ha, Flood; 0 to 100 scale where 0 is no effect and 100 is complete control; read-out: Rice plant response rating
# Summary of the method: (§1)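 Greenhouse paddy pots with 2-leaf stage plants received compound by direct addition to floodwater 3 cm deep, kept at that level. Scored visually at 13–15 d versus controls (0 no effect; 100 complete control).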
# [2] = tested on: ducksalad (Heteranthera limosa); test: Test B flooded paddy test; conditions: Heteranthera limosa, 250 g ai/ha, Flood; 0 to 100 scale where 0 is no effect and 100 is complete control; read-out: Ducksalad plant response rating
# Summary of the method: as §1
# [3] = tested on: sedge, umbrella (small-flower umbrella sedge, Cyperus difformis); test: Test B flooded paddy test; conditions: Cyperus difformis, 250 g ai/ha, Flood; 0 to 100 scale where 0 is no effect and 100 is complete control; read-out: Sedge, Umbrella plant response rating
# Summary of the method: as §1
# [4] = tested on: barnyardgrass (Echinochloa crus-galli); test: Test B flooded paddy test; conditions: Echinochloa crus-galli, 250 g ai/ha, Flood; 0 to 100 scale where 0 is no effect and 100 is complete control; read-out: Barnyardgrass plant response rating
# Summary of the method: as §1
# [5] = tested on: corn (Zea mays); test: Test A postemergence; conditions: Zea mays, post-emergence, 240 h
# Summary of the method: (§2)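 Preemergence directed soil spray on seeded pots, or postemergence application to plants 2–10 cm, one- to two-leaf. Solvent mixture non-phytotoxic, with surfactant. Scored ~10 d later, visually, 0–100 vs untreated.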
# [6] = tested on: pigweed (Amaranthus retroflexus); test: Test A postemergence; conditions: Amaranthus retroflexus, post-emergence, 240 h
# Summary of the method: as §2
# [7] = tested on: Kochia (Kochia scoparia); test: Test A postemergence; conditions: Bassia scoparia, post-emergence, 240 h
# Summary of the method: as §2
# [8] = tested on: blackgrass (Alopecurus myosuroides); test: Test A postemergence; conditions: Alopecurus myosuroides, post-emergence, 240 h
# Summary of the method: as §2
# [9] = tested on: wheat (Triticum aestivum); test: Test A postemergence; conditions: Triticum aestivum, post-emergence, 240 h
# Summary of the method: as §2
# [10] = tested on: ryegrass, Italian (Italian ryegrass, Lolium multiflorum); test: Test A postemergence; conditions: Lolium multiflorum, post-emergence, 240 h
# Summary of the method: as §2
# [11] = tested on: ragweed (common ragweed, Ambrosia elatior); test: Test A postemergence; conditions: Ambrosia artemisiifolia, post-emergence, 240 h
# Summary of the method: as §2
# [12] = tested on: Galium (catchweed bedstraw, Galium aparine); test: Test A postemergence; conditions: Galium, post-emergence, 240 h
# Summary of the method: as §2
# [13] = tested on: giant foxtail (Setaria faberii); test: Test A postemergence; conditions: Setaria faberi, post-emergence, 240 h
# Summary of the method: as §2
# [14] = tested on: barnyardgrass (Echinochloa crus-galli); test: Test A postemergence; conditions: Echinochloa crus-galli, post-emergence, 240 h
# Summary of the method: as §2
# [15] = tested on: pigweed (Amaranthus retroflexus); test: Test A preemergence; conditions: Amaranthus retroflexus, pre-emergence, 240 h, 0 to 100 scale where 0 is no effect and 100 is complete control, read-out: Pigweed plant response rating
# [16] = tested on: Kochia (Kochia scoparia); test: Test A preemergence; conditions: Bassia scoparia, pre-emergence, 240 h, 0 to 100 scale where 0 is no effect and 100 is complete control, read-out: Kochia plant response rating
# Summary of the method: as §2
# [17] = tested on: ryegrass, Italian (Italian ryegrass, Lolium multiflorum); test: Test A preemergence; conditions: Lolium multiflorum, pre-emergence, 240 h, 0 to 100 scale where 0 is no effect and 100 is complete control, read-out: Ryegrass, Italian plant response rating
# Summary of the method: as §2
# [18] = tested on: ragweed (common ragweed, Ambrosia elatior); test: Test A preemergence; conditions: Ambrosia artemisiifolia, pre-emergence, 240 h, 0 to 100 scale where 0 is no effect and 100 is complete control, read-out: Ragweed plant response rating
# Summary of the method: as §2
# [19] = tested on: giant foxtail (Setaria faberii); test: Test A preemergence; conditions: Setaria faberi, pre-emergence, 240 h, Preemergence
# Summary of the method: as §2
# [20] = tested on: barnyardgrass (Echinochloa crus-galli); test: Test A preemergence; conditions: Echinochloa crus-galli, pre-emergence, 240 h, Preemergence
# Summary of the method: as §2
# [21] = 125 g ai/ha, preemergence, approx. 10 d
compound,measurement,setting,value
COCc1ccccc1NC(=O)[C@H]1C(=O)N(C)C[C@@H]1c1cccc(C(F)(F)F)c1 (racemic) [Compound 1060],pest or weed control at 250 g/ha,[1],20%
same,pest or weed control at 250 g/ha,[2],90%
same,pest or weed control at 250 g/ha,[3],0%
same,pest or weed control at 250 g/ha,[4],75%
same,plant injury at 125 g/ha,"[5]; 125 g ai/ha, postemergence, visual injury on 0 to 100 scale (0 no effect, 100 complete control), approx. 10 d, read-out: Corn plant response rating",90%
same,"Corn plant response rating (crop injury, 0 = no effect, 100 = complete kill) at 31 g/ha","[5]; Postemergence, 31 g ai/ha, visual injury after approx. 10 d, 0 to 100 scale, 0 no effect, 100 complete control",70%
same,pest or weed control at 125 g/ha,"[6]; 125 g ai/ha, postemergence, visual injury on 0 to 100 scale (0 no effect, 100 complete control), approx. 10 d, read-out: Pigweed plant response rating",0%
same,pest or weed control at 31 g/ha,"[6]; Postemergence, 31 g ai/ha, visual injury after approx. 10 d, 0 to 100 scale, 0 no effect, 100 complete control, read-out: Plant response rating, Pigweed",0%
same,pest or weed control at 125 g/ha,"[7]; 125 g ai/ha, postemergence, visual injury on 0 to 100 scale (0 no effect, 100 complete control), approx. 10 d, read-out: Kochia plant response rating",0%
same,pest or weed control at 31 g/ha,"[7]; Postemergence, 31 g ai/ha, visual injury after approx. 10 d, 0 to 100 scale, 0 no effect, 100 complete control, read-out: Plant response rating, Kochia",0%
same,pest or weed control at 125 g/ha,"[8]; 125 g ai/ha, postemergence, visual injury on 0 to 100 scale (0 no effect, 100 complete control), approx. 10 d, read-out: Blackgrass plant response rating",60%
same,pest or weed control at 31 g/ha,"[8]; Postemergence, 31 g ai/ha, visual injury after approx. 10 d, 0 to 100 scale, 0 no effect, 100 complete control, read-out: Plant response rating, Blackgrass",50%
same,plant injury at 125 g/ha,"[9]; 125 g ai/ha, postemergence, visual injury on 0 to 100 scale (0 no effect, 100 complete control), approx. 10 d, read-out: Wheat plant response rating",70%
same,plant injury at 31 g/ha,"[9]; Postemergence, 31 g ai/ha, visual injury after approx. 10 d, 0 to 100 scale, 0 no effect, 100 complete control, read-out: Plant response rating, Wheat",30%
same,pest or weed control at 125 g/ha,"[10]; 125 g ai/ha, postemergence, visual injury on 0 to 100 scale (0 no effect, 100 complete control), approx. 10 d, read-out: Ryegrass, Italian plant response rating",50%
same,pest or weed control at 31 g/ha,"[10]; Postemergence, 31 g ai/ha, visual injury after approx. 10 d, 0 to 100 scale, 0 no effect, 100 complete control, read-out: Plant response rating, Ryegrass, Italian",50%
same,pest or weed control at 125 g/ha,"[11]; 125 g ai/ha, postemergence, visual injury on 0 to 100 scale (0 no effect, 100 complete control), approx. 10 d, read-out: Ragweed plant response rating",30%
same,pest or weed control at 31 g/ha,"[11]; Postemergence, 31 g ai/ha, visual injury after approx. 10 d, 0 to 100 scale, 0 no effect, 100 complete control, read-out: Plant response rating, Ragweed",0%
same,pest or weed control at 125 g/ha,"[12]; 125 g ai/ha, postemergence, visual injury on 0 to 100 scale (0 no effect, 100 complete control), approx. 10 d, read-out: Galium plant response rating",40%
same,pest or weed control at 31 g/ha,"[12]; Postemergence, 31 g ai/ha, visual injury after approx. 10 d, 0 to 100 scale, 0 no effect, 100 complete control, read-out: Plant response rating, Galium",0%
same,pest or weed control at 125 g/ha,"[13]; 125 g ai/ha, postemergence, visual injury on 0 to 100 scale (0 no effect, 100 complete control), approx. 10 d, read-out: Foxtail, Giant plant response rating",90%
same,pest or weed control at 31 g/ha,"[13]; Postemergence, 31 g ai/ha, visual injury after approx. 10 d, 0 to 100 scale, 0 no effect, 100 complete control, read-out: Plant response rating, Foxtail, Giant",90%
same,pest or weed control at 125 g/ha,"[14]; 125 g ai/ha, postemergence, visual injury on 0 to 100 scale (0 no effect, 100 complete control), approx. 10 d, read-out: Barnyardgrass plant response rating",100%
same,pest or weed control at 31 g/ha,"[14]; Postemergence, 31 g ai/ha, visual injury after approx. 10 d, 0 to 100 scale, 0 no effect, 100 complete control, read-out: Plant response rating, Barnyardgrass",90%
same,pest or weed control at 31 g/ha,"[15]; 31 g ai/ha, Preemergence",0%
same,pest or weed control at 125 g/ha,[15]; [21],30%
same,pest or weed control at 31 g/ha,"[16]; 31 g ai/ha, Preemergence",0%
same,pest or weed control at 125 g/ha,[16]; [21],0%
same,pest or weed control at 31 g/ha,"[17]; 31 g ai/ha, Preemergence",50%
same,pest or weed control at 125 g/ha,[17]; [21],60%
same,pest or weed control at 31 g/ha,"[18]; 31 g ai/ha, Preemergence",0%
same,pest or weed control at 125 g/ha,[18]; [21],30%
same,pest or weed control at 125 g/ha,"[19]; 125 g ai/ha, visual injury rating after approximately 10 d, read-out: Foxtail, Giant plant response rating (0 to 100 scale, 0 is no effect, 100 is complete control)",100%
same,pest or weed control at 31 g/ha,"[19]; 31 g ai/ha, 0 to 100 scale (0 no effect, 100 complete control), read-out: Plant response rating, Foxtail, Giant",90%
same,pest or weed control at 125 g/ha,"[20]; 125 g ai/ha, visual injury rating after approximately 10 d, read-out: Barnyardgrass plant response rating (0 to 100 scale, 0 is no effect, 100 is complete control)",100%
same,pest or weed control at 31 g/ha,"[20]; 31 g ai/ha, 0 to 100 scale (0 no effect, 100 complete control), read-out: Plant response rating, Barnyardgrass",90%

# From US12077503B2, “Substituted cyclic amides and their use as herbicides” (FMC CORPORATION, priority 2015, dated 2024)
